These are literature values, as cited in US20130064888A1, “PHARMACEUTICAL FORMULATIONS” (priority 2011, published 2013).

For series [1] the following is noted: many organic solvents, including ethanol.
The conditions of series [2]: at 25° C.; practically insoluble in water.

“5-chloro-N-({(5S)-2-oxo-3-[4-(3-oxo-4-morpholinyl)-phenyl]-1,3-oxaolidin-5-yl}methyl-2-thiophencarboxamide [Rivaroxaban]”: the “solubility in organic solvents” value in series [1] is recorded as “low solubility”. Besides, in series [2], the water solubility was less than 100 µg/mL.
